For assay [1], the system named is eNOS phosphorylation in HUVECs. As to the kind of experiment: Histamine-induced eNOS phosphorylation (Western blot). The format is cell-based, human. Conditions: pretreatment 0.1 μM, 15 minutes; histamine 10 μM, 5 minutes. As to the method:
(§1) In Examples 4 to 6, human umbilical vein endothelial cells (hereinafter, sometimes referred to as “HUVECs”, manufactured by Lonza) were cultured in EGM-2 (manufactured by Lonza K.K.). These cells (passages 4 to 9) were used for experiments after 4-hour starvation in EBM-2 (manufactured by Lonza K.K.) containing 2% FBS.
To the plates on which the HUVECs were cultured, 5,6-DiHETE was added so as to attain 100 nM, and, 15 minutes after the addition, histamine was added so as to attain 10 μM. Then, in order to measure the protein masses of phosphorylated eNOS and eNOS, 5 minutes after the administration of histamine, the HUVECs were lysed with a modified lysis buffer (50 mM Tris-HCl (pH 7.4), 0.1 mM EDTA, 0.1 mM EGTA, 1% NP-40 substitute, 0.1% SDS, 0.1% deoxycholic acid, 50 mM NaF, 1 mM Na3VO4, and 10 mM β-glycerophosphate). […] Bands were detected and quantified using an Odyssey system (manufactured by LI-COR Biosciences) (FIG. 5B). Specifically, the bands of phosphorylated eNOS and eNOS were detected by scanning (800 nm) with the Odyssey system, and their intensity (band brightness) was quantified. The phosphorylation level of eNOS (ratio of phosphorylated eNOS to eNOS) was quantified and evaluated by a relative value obtained by dividing the band brightness of phosphorylated eNOS by the band brightness of eNOS. […]

Assay [2] deals with anaphylaxis model mice. As to the kind of experiment: Histamine-induced anaphylaxis: blood pressure and body temperature. The assay is classed as in vivo, mouse (C57BL/6). The note with it: 50 μg/kg intravenously 15 minutes before histamine 50 mg/kg. The method, then:
Histamine (50 mg/kg) lysed in a physiological saline solution was intravenously administered to C57BL/6 strain mice (male, 8 to 12 weeks old) to prepare anaphylaxis model mice (hereinafter, sometimes referred to as “anaphylaxis group”). […] L-NAME is an NO synthesis inhibitor. As indices of anaphylactic symptoms, a body temperature decrease and a blood pressure decrease were observed.

Assay [3] relates to histamine-induced vascular permeability in mouse ears. In words: Modified Miles assay: histamine-induced vascular hyperpermeability (Evans blue extravasation). The assay is classed as in vivo, mouse (C57BL/6). The note with it: pretreatment 0.1 μg/ear, 15 minutes, before 400 μg histamine. The method, then: Fifteen (15) minutes after the intracutaneous injection, a vehicle (80% acetone) or histamine (400 μg, manufactured by Molecular Probes) was percutaneously administered to the ventral surface of the ears. To evaluate vascular permeability, Evans blue (50 mg/kg, manufactured by Sigma) was injected intravenously 5 minutes after the administration of histamine. The mice were then euthanized by cervical dislocation 30 minutes after the injection of Evans blue. The ears were dissected, dried at 55° C., and weighed. Extravasated Evans blue present in the ears was extracted in formamide (manufactured by Molecular Probes), and quantified spectrophotometrically (manufactured by PerkinElmer Japan Co., Ltd.) at a wavelength of 610 nm.

The test system of assay [4] is HUVECs. In words: Endothelial barrier function: transendothelial electrical resistance (TER). The format is cell-based, human. As to the method: as §1
The in vitro endothelial barrier function was evaluated by measuring the transendothelial electrical resistance (hereinafter, sometimes referred to as “TER”) of the HUVECs prepared in the above item (1) over time. Specifically, the transendothelial electrical resistance was measured using an xCELLigence Real-Time Cell Analyzer DP system (manufactured by Roche). The system monitors changes in TER across an interdigitated microelectrode at the bottom of tissue culture E-plates (manufactured by Roche). The HUVECs (8,000 cells) were plated on the E-plates and incubated until confluent. Then, the following operation (a) or (b) was performed.
(a) Each reagent was added to plates on which the HUVECs were cultured, so as to give a vehicle, 1 U/mL thrombin, 1 μM forskolin, or 0.1 μM or 0.3 μM 5,6-DiHETE (FIGS. 4A and 4B).
(b) A vehicle or […] was added to plates on which the HUVECs were cultured, so as to attain 10 μM. […] Thirty (30) minutes after the addition, 10 μM histamine was added to each plate 30 minutes after the addition (FIGS. 4C and 4D).
In the above operations (a) and (b), the TER was measured every 60 seconds. For normalization, the cell index value at each time point is shown as a ratio relative to the initial value. The maximum normalized cell index after stimulation was quantified and represented as maximal response. Note that it is known that the disruption of the endothelial barrier function lowers the TER, but that the enhancement of the endothelial barrier function increases the TER.

Assay [5] relates to NO production in HUVECs. In words: Histamine-induced NO production (nitrite and nitrate). The assay is classed as cell-based, human. Conditions: pretreatment 0.1 μM, 15 minutes; histamine 10 μM. The method, then:
as §1
The HUVECs were washed three times with HEPES and incubated in HEPES supplemented with 1 mM L-arginine and 10 μM tetrahydrobiopterin. After equilibration for 30 minutes, the medium was exchanged, and the cells were incubated for additional 30 minutes. […] The conditioned media before and after the stimulation (100 μL each) were collected and centrifuged in each amount of 300 g for 3 minutes. The supernatants were collected, and used to measure nitrite and nitrate, as stable metabolites of NO, by an ENO-20 NOx analyzer (manufactured by Eicom Corporation). The degrees of increases of nitrite and nitrate levels after the stimulation were normalized with cellular protein contents.

Consider `CC/C=C\C/C=C\C/C=C\C/C=C\C[C@@H](O)[C@@H](O)CCCC(=O)O` (racemic) [5,6-DiHETE, (±) 5,6-dihydroxy-8Z,11Z,14Z,17Z-eicosatetraenoic acid], for which, in assay [1], the “histamine-induced phosphorylation of eNOS (serine 1177)” value is listed as “significantly reduced histamine-induced phosphorylation of eNOS”. In assay [2], this compound displayed a blood pressure of 93.3±4.9 mmHg and a body temperature decrease of −0.2±0.1 °C. For the same compound, in assay [3], the “dye extravasation (Evans blue) in ear” value amounted to 0.06 ± 0.02 µg/mg. Further, in assay [4] (0.1 μM and 0.3 μM, alone), the “change of TER” value was “did not change the TER”. The “TER, minimum (normalized cell index)” value in assay [4] (pretreatment 0.3 μM, 15 minutes, before histamine 10 μM) amounted to 0.915±0.012 fold. Besides, the “histamine-induced NO production” value in assay [5] was determined as 0.11±0.06 pmol/μg protein.

The values above are taken from patent publication US12285434B2, “Therapeutic, preventive, or improvement agent for inflammatory disease and allergic disease” (The University of Tokyo, priority 2018, dated 2025).
